Laboratory results from patent publication US20160075991A1, “Process for Preparing Starter Cultures of Lactic Acid Bacteria” (INSTITUT NATIONAL DE LA RECHERCHE, priority 1998, published 2016).

Columns and labels:
Format in all cases: cell-based
[1] = system: Lactococcus lactis subsp. cremoris strain MG1363; test: Survival of the lactic acid bacteria during storage at 4° C. (Example 3); details: for Number of cells per ml: porphyrin compound and aeration, 1% glucose M17, storage at 4° C.
Description: A laboratory medium, i.e. M17 supplemented with 1% of glucose, is inoculated with Lactococcus lactis subsp. cremoris strain MG1363 in the form of a 1/1000 dilution of a saturated culture. The cultures are then divided into two equal parts, and hemin is added to one of these two cultures to give a final concentration of 10 μg/ml. […] Aliquots of the two cultures are removed regularly during the exponential growth phase in order to monitor viability, rate of growth and pH. After 24 h of growth, the cultures are placed (stored) in a 30° C. incubator without shaking, and aliquots are removed every 24 h in order to monitor the viability of the cells. The Lactococcus lactis subsp. cremoris strain MG1363 was cultured as in the experiment described in Example 2, but the storage, which is carried out 24 h after inoculation, is at 4° C. instead of at 30° C.

[2] = system: Lactococcus lactis subsp. cremoris strain MG1363; test: Culturing in the presence of protoporphyrin IX (Example 1.2); details: for Concentration of lactic acid / Final pH / Number of viable cells / OD600 nm: 1% glucose, 24 h
Description: A laboratory medium (M17 supplemented with 1% glucose) is inoculated with the Lacrococcus lactis subsp. cremoris strain MG1363 in the form of a 1/1000 dilution of a saturated culture (prepared at 30° C. with no shaking). The inoculated medium contained or not protoporphyrin IX at a final concentration of 10 μg/ml (a 0.5 mg/ml stock solution is prepared by adding 100 mg of protoporphyin IX to 2 ml of 5N NaOH, to which 198 ml of water is then added; the solution is autoclaved at 120° C. for 20 minutes). For bacteria grown in medium containing protoporphyrin IX, cultures were maintained at 30° C. with shaking (250 rotations per minute) in order to ensure oxygenation, or without shaking as a control. Two other control cultures, without protoporphyin IX or without shaking, were grown at 30° C. in parallel. After 24 h of growth, aliquots are removed to measure the optical density at 600 nm (OD600 nm), the number of viable bacteria, the final pH and the concentration of lactate in the medium.

[3] = system: Lactococcus lactis subsp. cremoris strain MG1363; test: Culturing in the presence of chlorophyllin (Example 1.3); details: cultures in the presence of chlorophyllin, not shaken
Description: A laboratory medium (M17 supplemented with 1% glucose) is inoculated with the Lactococcus lactis subsp. cremoris strain MG1363 in the form of a 1/1000 dilution of a saturated culture (prepared at 30° C. with no shaking). The inoculated medium contained or not chlorophyllin (a degradation product of chlorophyll) at a final concentration of 10 μg/ml. In order for it to be active, the chlorophyllin was incubated beforehand in an acidic medium and in the presence of traces of iron in order to replace the Cu atom with an Fe atom. This can, for example, be done as follows: a) by incubating a concentrated solution of chlorophyllin for 24 h in a laboratory medium (M17 supplemented with glucose) which was inoculated with 10^6 lactococci per ml and maintained at 30° C. for 24 h. The supernatant containing the chlorophyllin at a concentration of 100 μg/ml is filtered and then added to the culture medium so as to obtain a final concentration of 10 μg/mi. b) by incubating a concentrated solution of chlorophyllin for 24 h in M17 at a pH of between 3 and 5 (acidified with HCl) and at a temperature of 4° C., 30° C. or 60° C. The pH is then readjusted to 7. […] The pH is then readjusted to 7. […]

[4] = with protoporphyrin IX 10 μg/ml and aeration
[5] = with protoporphyrin IX 10 μg/ml but without aeration

## C=CC1=C(C)c2cc3[nH]c(cc4nc(cc5[nH]c(cc1n2)c(C)c5CCC(=O)O)C(CCC(=O)O)=C4C)c(C)c3C=C [protoporphyrin IX]
[1]; after 2 months at 4° C., cultured with porphyrin compound under aeration
  survival rate: ~1%
[1]; 0 days after culture
  Number of cells per ml: 6.4 × 10^9 cells per ml
[1]; 1 day after culture
  Number of cells per ml: 6.2 × 10^9 cells per ml
[1]; 2 days after culture
  Number of cells per ml: 5.6 × 10^9 cells per ml
[1]; 3 days after culture
  Number of cells per ml: 5.4 × 10^9 cells per ml
[1]; 7 days after culture
  Number of cells per ml: 4.0 × 10^9 cells per ml
[1]; 8 days after culture
  Number of cells per ml: 2.8 × 10^9 cells per ml
[1]; 9 days after culture
  Number of cells per ml: 1.9 × 10^9 cells per ml
[1]; 10 days after culture
  Number of cells per ml: 3.9 × 10^8 cells per ml
[1]; 13 days after culture
  Number of cells per ml: 1.7 × 10^8 cells per ml
[1]; 15 days after culture
  Number of cells per ml: 6.0 × 10^7 cells per ml
[1]; 22 days after culture
  Number of cells per ml: 5.9 × 10^7 cells per ml
[1]; 28 days after culture
  Number of cells per ml: 5.4 × 10^7 cells per ml
[1]; 36 days after culture
  Number of cells per ml: 5.4 × 10^7 cells per ml
[1]; 43 days after culture
  Number of cells per ml: 5.3 × 10^7 cells per ml
[1]; 50 days after culture
  Number of cells per ml: 4.8 × 10^7 cells per ml
[1]; 57 days after culture
  Number of cells per ml: 5.3 × 10^7 cells per ml
[2]; cells cultured in the presence of protoporphyrin IX and oxygen
  production of lactic acid as share of the quantity of sugar added: less than 40%
[2]; protoporphyrin IX and oxygen
  pH of the culture (remains stable): approximately 5.5
[2]; [4]
  Concentration of lactic acid: 1.9 g/L
  Final pH: 5.49
  Number of viable cells: 6.9 ×10^9
  OD600 nm: 4.6
[2]; [5]
  Concentration of lactic acid: 8.2 g/L
  Final pH: 4.53
  Number of viable cells: 2.7 ×10^9
  OD600 nm: 2.5

## chlorophyllin
[3]
  variation of OD600 nm and pH from the control: No significant variation from the control
